Source: publication PMC8079060 (Drug Delivery, 2021)
Several values for one entry are separate records, joined by “and”; a condition that tells them apart may be missing. Equal values may be shown once.

Key:
[1] = Tissue distribution in MDA-MB-231 tumor-bearing nude mice
Procedure: Mice were sacrificed and the tumors and main organs were harvested at 1, 4, 8, and 24 h after administration. Each tissue sample was homogenized in 1 mL acetonitrile and centrifugated.

[2] = Plasma pharmacokinetics after intravenous administration; conditions: rats; for Tmax: i.v. NPPA-PTX NPs 6.04 mg kg^−1 (equimolar with 5.00 mg kg^−1 PTX) or Taxol 5.00 mg kg^−1; for Tmax / AUCINF_obs / AUClast / Cmax: plasma
Procedure: Post injection, ∼200 μL blood samples were drawn from the jugular vein at predetermined time points of 0.033, 0.083, 0.25, 0.5, 1, 2, 4, 6, 8, 12, and 24 h post-injection and centrifuged immediately at 3000 rpm for 10 min at 4 °C. […] 200 μL of deionized water was added into the 40 μL supernatants followed by vortexing for 1 min. Finally, the pharmacokinetic data analysis was performed via a liquid chromatography-tandem mass spectrometry (LC-MS/MS Applied Biosystems. Foster City, CA, USA) and pharmacokinetic parameters were acquired by Winnolin 7.0 software.

HCT116 cells = assay: cells; conditions: Homo sapiens, HCT-116
Procedure: (§1) Dose-effect curves were constructed and IC50 values were calculated by GraphPad Prism6/SPSS Software.

MDA-MB-231 cells = assay: cells; conditions: Homo sapiens
Procedure: as §1

[3] = i.v. NPPA-PTX NPs 6.04 mg kg^−1 or Taxol 5.00 mg kg^−1, mean ± SEM, n = 3

Row | SMILES | Tmax ([2]; mean ± SEM, n = 3) [min] | Cl_obs [2, 3] [mL/min/kg] | HL_Lambda_z [2, 3] [h] | MRTlast [2, 3] [h] | Vz_obs (apparent distribution volume) [2, 3] | AUCINF_obs [2, 3] [ng·h/mL] | AUClast [2, 3] [ng·h/mL] | Cmax [2, 3] [ng/mL] | also measured
1 | CC(=O)OC1C(=O)C2(C)C(O)CC3OCC3(OC(C)=O)C2C(OC(=O)c2ccccc2)C2(O)CC(OC(=O)C(O)C(NC(=O)c3ccccc3)c3ccccc3)C(C)=C1C2(C)C (centres unmarked) [PTX released from NPPA-PTX] | 2 ± 0 | 127.5 ± 34.17 | 9.53 ± 5.82 | 7.38 ± 0.817 | 93,700 ± 26,400 mL kg^−1 | 837 ± 264 | 695 ± 99.6 | 99.0 ± 29.2 | AUC0–24h in plasma compared with PTX from Taxol ([1]; plasma): lower values (about three tenths); AUC0–24h in tumor compared with PTX from Taxol ([1]; tumor): equivalent values; MRT compared to that of PTX from Taxol ([2]; i.v.): 4 fold; Vz_obs (apparent distribution volume) ([2]; i.v. NPPA-PTX NPs 6.04 mg kg^−1 or Taxol 5.00 mg kg^−1, mean ± SEM, n = 3, listed as released PTX from NPPA-PTX): 93,700 mL kg^−1
2 | CC(=O)OC1C(=O)C2(C)C(O)CC3OCC3(OC(C)=O)C2C(OC(=O)c2ccccc2)C2(O)CC(OC(=O)C(OC(=O)CCc3ccccc3[N+](=O)[O-])C(NC(=O)c3ccccc3)c3ccccc3)C(C)=C1C2(C)C (centres unmarked) [NPPA-PTX, 3-(2-nitrophenyl) propionic acid-paclitaxel] | 2 ± 0 | 33.17 ± 16.4 | 7.45 ± 0.915 | 2.91 ± 0.280 | 20,700 mL kg^−1 and 20,700 ± 9320 mL kg^−1 | 3930 ± 2710 | 3810 ± 2640 | 4580 ± 2140 | AUC tissue/plasma ([1]; Heart): 0.65; AUC tissue/plasma ([1]; Kidney): 0.79; AUC tissue/plasma ([1]; Liver): 3.17; AUC tissue/plasma ([1]; Lung): 0.55; AUC tissue/plasma ([1]; Spleen): 0.35; AUC tissue/plasma ([1]; plasma): 1.00; AUC tissue/plasma ([1]; tumor): 0.45; MRTINF_obs (mean residence time) [2, 3]: 3.90 ± 0.656 h
3 | CC(=O)O[C@H]1C(=O)[C@@]2(C)[C@H]([C@H](OC(=O)c3ccccc3)[C@]3(O)C[C@H](OC(=O)[C@H](O)[C@@H](NC(=O)c4ccccc4)c4ccccc4)C(C)=C1C3(C)C)[C@]1(OC(C)=O)CO[C@@H]1C[C@@H]2O [PTX, paclitaxel] |  |  |  |  |  |  |  |  | IC50 (HCT116 cells): 300 ± 20 nM; IC50 (MDA-MB-231 cells): 63 ± 3.3 nM
4 | CC(=O)OC1C(=O)C2(C)C(O)CC3OCC3(OC(C)=O)C2C(OC(=O)c2ccccc2)C2(O)CC(OC(=O)C(O)C(NC(=O)c3ccccc3)c3ccccc3)C(C)=C1C2(C)C (centres unmarked) [PTX from Taxol] | 2 ± 0 | 19.5 ± 6.63 | 5.86 ± 1.24 | 2.50 ± 0.545 | 10,300 mL kg^−1 and 10,300 ± 5480 mL kg^−1 | 4560 ± 1310 | 4480 ± 1310 | 8600 ± 2500 | 
